Measured values as given in patent US7615231B2, “Methods for enhancing the morphology, tone, texture and/or appearance of skin or hair using a meadowlactone” (Fan Tech, Ltd., priority 2005, dated 2009).

Legend:
[1] = Analytical results on purified Meadowlactone (stability); type: physicochemical
Excerpt: The purified Meadowlactone was identified and subsequently quantified by infrared spectroscopy and HPLC coupled with an evaporative light-scattering detector.

skin = test: Initial use trials of skin creams containing the Meadowlactone; type: in vivo
[2] = Solubility of the Meadowlactone as a function of pH in aqueous systems; type: physicochemical
Experimental: Solubility of the Meadowlactone as a function of pH was determined in aqueous systems.
In these experiments, 2 weight percent of Meadowlactone was mixed with water at room temperature. The pH of this mixture was varied, starting at an acidic pH and terminating at an alkaline pH. The clarity of the mixture was observed, and the mixture was photographed, at different pH levels (varying by one pH unit at a time).

stability [1]: extended stability
oil / water solubility of the isomeric structures ([2]; 2 weight percent in water at room temperature, pH varied from acidic to alkaline, clarity observed): oil soluble
Compound: CCCCCCCCCCCCCCCC1CCCC(=O)O1 (stereo not shown) [Meadowlactone, Meadowfoam Delta Lactone]
skin moisturization (skin): very effective
forms present at the pH reported for human skin ([2]; pH from about 4.5 to about 5.5): both the Meadowlactone and the 5-hydroxy fatty acid exist together in equilibrium
